Test results: patent publication US20240100133A1, “ENZYMATICALLY INACTIVE GRANZYME A AND USES THEREFORE” (Saint Louis University, priority 2022, published 2024)

Test system: Connaught BCG within primary CD14+ human monocytes
Assay type: cell-based

Substance: PACMA-31 [reference compound]
- effect of PDIA1 inhibitor on GzmA-mediated mycobacterial inhibition, BCG (PACMA-31 200 nM or Rutin 50 μM pretreatment combined with GzmA-WT): enhanced mycobacterial inhibitory activity
- intracellular bacterial burden, PDIA1 inhibitor alone (PACMA-31 200 nM or Rutin 50 μM, 30 min pretreatment, no GzmA): did not influence the intracellular bacterial burden
